# Reference: BindingDB's records for doi:10.7270/Q2NV9GP9 (Burnham Center For Chemical Genomics, 2010)
# Counter-ions that a name gives are not always drawn.
# Target: T1, Apelin receptor (Homo sapiens, UniProt P35414)
# T1 sequence (P35414 whole entry): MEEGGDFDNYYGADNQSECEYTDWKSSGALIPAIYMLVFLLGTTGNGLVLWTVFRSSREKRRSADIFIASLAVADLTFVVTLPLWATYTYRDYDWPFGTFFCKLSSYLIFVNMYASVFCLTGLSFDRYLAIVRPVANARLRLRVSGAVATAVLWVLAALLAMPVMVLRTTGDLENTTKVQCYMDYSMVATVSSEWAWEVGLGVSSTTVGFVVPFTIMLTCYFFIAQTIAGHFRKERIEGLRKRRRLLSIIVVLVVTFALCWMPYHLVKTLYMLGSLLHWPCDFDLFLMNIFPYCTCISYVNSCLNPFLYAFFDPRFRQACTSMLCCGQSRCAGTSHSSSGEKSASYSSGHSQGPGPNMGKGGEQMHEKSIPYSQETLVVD
# Assay: apelin receptor activators, concentration-response – cell-based, luminescence, uHTS hits, dose response (AID 488748)
# Conditions: not given
row,EC50 [µM],Structure (SMILES)
1,> 100,Cc1ccc(S(=O)(=O)Nc2nc(-c3ccccc3)cs2)cc1
2,> 100,Cc1cc(C)c2nc(NNC(=O)c3ccc(S(=O)(=O)N4CCc5ccccc5C4)cc3)sc2c1
3,> 100,Cc1ccc2nc(C(C#N)=Cc3ccc([N+](=O)[O-])o3)[nH]c2c1
4,> 100,CCC(c1nnnn1CCOC)N(Cc1ccc(C)cc1)Cc1cc2cc(OC)ccc2[nH]c1=O (centres undefined)
5,> 100,CCC(C)NC(=O)CSC1=Nc2ccccc2C2=NC(CC(=O)NCc3ccc(F)cc3)C(=O)N12 (centres undefined)
6,58.4,COc1ccccc1-n1c(SC)nc(O)cc1=O
7,> 100,CCCCCCC1=Cc2c/c(=C3/NN=C(c4cc(OC)c(OC)c(OC)c4)O3)c(=O)oc2=CC1=O
8,> 100,COc1cc2c(cc1NC(=O)c1cc(-c3ccncc3)nc3ccc(C)cc13)oc1ccccc12
9,> 100,Cc1cc(C)c2sc(NNC(=O)c3ccc(S(=O)(=O)N4CCc5ccccc5C4)cc3)nc2c1
10,> 100,COC/C=C/C1=CC2=CC(=O)C(C)(OC(=O)c3cnc4ccccc4n3)C(=O)C2=CN1c1ccccc1 (centres undefined)
11,> 100,Clc1cccc(CN2CCc3c([nH]c4ccccc34)C2)c1
12,> 100,COc1ccc(CN=Nc2cc(C)nc3ccc(OC)cc23)c(OC)c1
13,> 100,CCOc1cc2[nH]c(=S)n(CCCC(=O)NCc3ccccn3)c(=O)c2cc1OCC
14,> 100,CCN(CC)CCNC(=O)c1ccc(NC(=O)c2cc(-c3ccco3)nc3ccccc23)cc1
15,> 100,CC1CCCCN1S(=O)(=O)c1ccc(C(=O)N(CCCN(C)C)c2nc3ccc(Br)cc3s2)cc1 (centres undefined)
16,> 100,CCOc1ccc2nc(N(CCCN(C)C)C(=O)c3ccc(S(=O)(=O)N4CCc5ccccc5C4)cc3)sc2c1
17,> 100,COc1cccc2sc3cc(NCC[C@@H]4CCCN4C)ccc3c(=O)c12
18,78.9,C=CCSc1nc(O)c(CC)c(=O)n1C(C)CC (centres undefined) [1-butan-2-yl-5-ethyl-6-oxidanyl-2-prop-2-enylsulfanyl-pyrimidin-4-one]
19,> 100,"CCC(C)NC(=O)CSC1=Nc2ccccc2C2=NC(CC(=O)NCc3ccccc3)C(=O)N12 (centres undefined) [2-[5-[2-(butan-2-ylamino)-2-oxidanylidene-ethyl]sulfanyl-3-oxidanylidene-2H-imidazo[1,2-c]quinazolin-2-yl]-N-(phenylmethyl)ethanamide]"
20,> 100,"Clc1ccccc1CSc1nnc(-c2ccncc2)o1 [2-{[(2-chlorophenyl)methyl]sulfanyl}-5-(pyridin-4-yl)-1,3,4-oxadiazole]"

row,EC50 [µM],Structure (SMILES)
1,> 100,CCOc1ccc2nc(O)c(CN(Cc3ccco3)C(CC)c3nnnn3Cc3ccccc3)cc2c1 (centres undefined) [3-({[1-(1-Benzyl-1H-tetrazol-5-yl)-propyl]-furan-2-ylmethyl-amino}-methyl)-6-ethoxy-1H-quinolin-2-one]
2,> 100,"CCOc1cc2[nH]c(=S)n(CCC(=O)N3CCc4ccccc4C3)c(=O)c2cc1OCC [3-[3-(3,4-dihydro-1H-isoquinolin-2-yl)-3-oxidanylidene-propyl]-6,7-diethoxy-2-sulfanylidene-1H-quinazolin-4-one]"
3,> 100,CCC(c1nnnn1Cc1ccccc1)N(Cc1cc2cc(OC)ccc2[nH]c1=O)CC1CCCO1 (centres undefined) [3-[[1-(1-benzyltetrazol-5-yl)propyl-(oxolan-2-ylmethyl)amino]methyl]-6-methoxy-1H-quinolin-2-one]
4,> 100,"COc1ccc2nc(O)c(C(c3nnnn3CC3CCCO3)N3CCc4ccccc4C3)cc2c1 (centres undefined) [3-{(3,4-Dihydro-1H-isoquinolin-2-yl)-[1-(tetrahydro-furan-2-ylmethyl)-1H-tetrazol-5-yl]-methyl}-6-methoxy-1H-quinolin-2-one]"
5,> 100,"CCOc1cccc2sc(N(CCCN(C)C)C(=O)c3ccc(S(=O)(=O)N4CCc5ccccc5C4)cc3)nc12 [4-(3,4-dihydro-1H-isoquinolin-2-ylsulfonyl)-N-[3-(dimethylamino)propyl]-N-(4-ethoxy-1,3-benzothiazol-2-yl)benzamide;hydrochloride]"
6,> 100,"Cn1ncc2c(ON=C(N)c3ccc(C(C)(C)C)cc3)ncnc21 [4-tert-butyl-N'-(1-methylpyrazolo[3,4-d]pyrimidin-4-yl)oxy-benzamidine]"
7,> 100,"CCOc1cc2[nH]c(=S)n(CCN3CCC(C)CC3)c(=O)c2cc1OCC [6,7-diethoxy-3-[2-(4-methyl-1-piperidinyl)ethyl]-2-sulfanylidene-1H-quinazolin-4-one]"
8,> 100,CC(C)(C)OC(=O)NCCCCCc1cn([C@@H](CO)C(=O)NCCCCCCCCCCC(=O)N2CCN(C(=O)OC(C)(C)C)CC2)nn1 [Boc-KS]
9,> 100,CCCCC1=CC2=CC(=O)C(C)(OC(=O)CC)C(=O)C2=CN1c1ccccc1 (centres undefined) [CMLD003542]
10,> 100,CCCc1cc(C(=O)Nc2sc3c(c2C(=O)OCC)CCCC3)no1 [MLS000116384]
11,> 100,CCOc1cc2[nH]c(=S)n(CCN3CCCCC3CC)c(=O)c2cc1OCC (centres undefined) [MLS000520831]
12,7.9,CCN1C(c2ccccc2)=C(c2ccccc2)S/C1=C\C=C1/SC(=S)N(C)C1=O [MLS000526292]
13,> 100,CC1CCN(S(=O)(=O)c2ccc3nc(-c4ccccn4)cc(C(=O)NCCN(C)Cc4ccccc4)c3c2)CC1 [MLS000682486]
14,> 100,C=CCn1c(SCC(=O)N2CCN(c3ccccc3)CC2)nc2c([nH]c3ccccc32)c1=O [MLS001236003]
15,> 100,COc1ccc(OC)c2sc(N(CCCN(C)C)C(=O)c3ccc(S(=O)(=O)N4CCc5ccccc5C4)cc3)nc12 [MLS001239200]
16,> 100,Cc1cc(C)c2sc(N(CCCN(C)C)C(=O)c3ccc(S(=O)(=O)N4CCc5ccccc5C4)cc3)nc2c1 [MLS001239249]
17,> 100,COc1cccc2sc(N(CCCN(C)C)C(=O)c3ccc(S(=O)(=O)N4CCc5ccccc5C4)cc3)nc12 [MLS001239312]
18,> 100,CCc1ccc2nc(N(CCCN(C)C)C(=O)c3ccc(S(=O)(=O)N4CCc5ccccc5C4)cc3)sc2c1 [MLS001239341]
19,> 100,CCOc1cccc2sc(N(CCCN(C)C)C(=O)c3ccc(S(=O)(=O)N(C)Cc4ccccc4)cc3)nc12 [MLS001239362]
20,> 100,COc1ccc2sc(N(CCCN(C)C)C(=O)c3ccc(S(=O)(=O)N4CCc5ccccc5C4)cc3)nc2c1 [MLS001239377]

row,EC50 [µM],Structure (SMILES)
1,> 100,Cc1ccc2nc(N(CCCN(C)C)C(=O)c3ccc(S(=O)(=O)N4CCc5ccccc5C4)cc3)sc2c1 [MLS001239478]
2,> 100,COc1cccc2sc3ccc(NCCC4CCCN4C)cc3c(=O)c12 (centres undefined) [MLS001249993]
3,> 100,NC(=NOS(=O)(=O)c1ccc2ccccc2c1)c1ccncc1 [N'-[(2-naphthylsulfonyl)oxy]-4-pyridinecarboximidamide]
4,> 100,COc1cc2c(cc1NC(=O)c1cc(-c3cccnc3)nc3ccc(C)cc13)oc1ccccc12 [N-(2-methoxydibenzofuran-3-yl)-6-methyl-2-pyridin-3-ylquinoline-4-carboxamide]
5,> 100,CCN(CC)CCNC(=O)c1cc(-c2cccnc2)nc2ccc(S(=O)(=O)N3CCC(C)CC3)cc12 [N-[2-(diethylamino)ethyl]-6-[(4-methyl-1-piperidinyl)sulfonyl]-2-(3-pyridinyl)-4-quinolinecarboxamide]
6,> 100,CC(C)C(=O)N1CCN(c2ccc(NC(=O)COc3ccccc3[N+](=O)[O-])cc2)CC1 [N-[4-(4-isobutyryl-1-piperazinyl)phenyl]-2-(2-nitrophenoxy)acetamide]
7,> 100,CSc1cccc(NC(=S)NC(=O)CCc2ccccc2)c1 [N-[(3-methylsulfanylphenyl)carbamothioyl]-3-phenyl-propanamide]
8,> 100,"CCCCNc1c(-c2cccc(-c3ccc(OC)cc3)c2)nc2ccc(C)cn12 [N-butyl-2-[3-(4-methoxyphenyl)phenyl]-6-methylimidazo[1,2-a]pyridin-3-amine;2,2,2-trifluoroacetic acid]"
9,> 100,CCOc1ccc2nc(O)c(CN(CCO)C(c3nnnn3C3CCCCC3)C(C)C)cc2c1 (centres undefined) [SMR000004541]
10,> 100,CCOc1cc2[nH]c(=S)n(CC3CCCN3CC)c(=O)c2cc1OCC (centres undefined) [SMR000030998]
11,> 100,CCSc1nc(O)c(CC)c(=O)n1C(C)CC (centres undefined) [SMR000103074]
12,> 100,COc1ccc2[nH]c(=O)c(CN(Cc3ccco3)C(c3nnnn3Cc3ccccc3)C(C)C)cc2c1 (centres undefined) [SMR000123514]
13,> 100,CC1=NOC(=O)/C1=C\c1ccc(-c2cc(Cl)ccc2Cl)o1 [SMR000141784]
14,> 100,O=c1oc2cc(OCc3ccc([N+](=O)[O-])cc3)ccc2c2c1CCCC2 [SMR000176214]
15,> 100,COc1cc2c(cc1NC(=O)c1cccc([N+](=O)[O-])c1)oc1ccccc12 [SMR000187222]
16,> 100,Cc1ccc(C=NNC(=O)CSc2nnc(-c3ccccc3)n2-c2ccc(Cl)cc2)o1 [SMR000217660]
17,> 100,Cc1ccc(C=NNC(=O)CSc2nnc(-c3ccc(Cl)cc3)n2-c2ccccc2)o1 [SMR000218122]
18,> 100,Cc1ccc2nc(NNC(=O)c3ccc(S(=O)(=O)N4CCc5ccccc5C4)cc3)sc2c1 [SMR000235768]
19,> 100,CC1(OC(=O)C2CCCC2)C(=O)C=C2C=C(c3ccsc3)N(C3CCCC3)C=C2C1=O (centres undefined) [SMR000452667]
20,> 100,O=C(Cn1ncc2c([nH]c3ccccc32)c1=O)Nc1ccc(CN2CCCCC2)cc1 [SMR000629297]

row,Structure (SMILES),EC50 [µM]
1,CCCSc1nc(O)c(CC)c(=O)n1C(C)CC (centres undefined) [1-butan-2-yl-5-ethyl-6-oxidanyl-2-propylsulfanyl-pyrimidin-4-one],56.9

# Same assay, conditions: inactive by the depositor's call
row,EC50 [µM],Structure (SMILES)
1,77.6,CCCCC1=CC2=CC(=O)C(C)(OC(=O)CC)C(=O)C2=CN1C1CCCCC1 (centres undefined)
2,96.6,"Cc1cc(C)n2nc3nc(N4CCCCC4)nc(-c4ccco4)c3c2n1 [4-(2-furyl)-6,8-dimethyl-2-piperidin-1-ylpyrimido[4',5':3,4]pyrazolo[1,5-a]pyrimidine]"
3,45.9,CCc1nnc(NC(=O)CSc2nc3cccnc3n2C2CCCCC2)s1 [MLS000073979]
